Test results as given in patent publication US20260124214A1, “HETEROCYCLIC COMPOUNDS FOR USE IN THE TREATMENT OF CANCER” (ARTIOS PHARMA LIMITED, priority 2021, published 2026).
Counter-ions that a name gives are not always drawn.

Target: T1, Human Polθ polymerase domain (aa1820-2590) (Homo sapiens, UniProt O75417)
T1 construct: Human Polθ polymerase domain (aa1820-2590) was expressed in E. Coli; made in house; host or cells: E. coli
T1 sequence (O75417 1820-2590): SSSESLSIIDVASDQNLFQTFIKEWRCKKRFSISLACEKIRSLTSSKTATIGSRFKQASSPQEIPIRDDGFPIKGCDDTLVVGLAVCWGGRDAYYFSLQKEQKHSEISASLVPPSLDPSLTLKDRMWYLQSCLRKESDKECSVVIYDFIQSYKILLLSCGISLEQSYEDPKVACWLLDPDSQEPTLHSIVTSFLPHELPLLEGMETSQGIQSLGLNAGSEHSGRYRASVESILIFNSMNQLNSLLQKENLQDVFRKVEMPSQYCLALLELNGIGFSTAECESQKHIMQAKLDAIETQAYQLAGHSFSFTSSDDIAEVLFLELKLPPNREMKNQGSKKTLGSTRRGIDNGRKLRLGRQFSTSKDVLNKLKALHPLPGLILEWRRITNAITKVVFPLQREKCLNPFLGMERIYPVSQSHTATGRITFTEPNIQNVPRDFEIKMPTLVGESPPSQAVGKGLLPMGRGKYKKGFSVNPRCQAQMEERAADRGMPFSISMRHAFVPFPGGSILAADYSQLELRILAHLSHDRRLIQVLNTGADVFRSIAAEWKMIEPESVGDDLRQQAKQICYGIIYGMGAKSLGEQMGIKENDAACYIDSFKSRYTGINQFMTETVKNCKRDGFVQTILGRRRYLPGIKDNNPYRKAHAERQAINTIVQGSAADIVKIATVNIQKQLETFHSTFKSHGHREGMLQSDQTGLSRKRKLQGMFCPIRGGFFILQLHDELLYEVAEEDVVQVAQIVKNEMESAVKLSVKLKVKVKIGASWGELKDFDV
Assay: Polθ Polymerase Domain WT KI Assay (PicoGreen)
Assay type: biochemical
Settings: 100 nM DNA substrate, 0.156 nM Polθ, initial rates vs inhibitor concentration
Procedure, shortened: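 E. coli-expressed human Polθ polymerase domain (aa1820-2590) on annealed DNA II Short/Long primer-template (1.2:1), in 25 mM Tris pH 7.5, NaCl, 5% glycerol, 0.01% Triton X-100, 0.1 mg/ml BSA, 1 mM DTT, 1% DMSO. EDTA-quenched timepoints to 180 min, PicoGreen fluorescence. Initial rates vs inhibitor concentration fitted four-parameter for KI.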

Ki [nM]	Compound
1.56	Cc1cc(C(F)(F)F)cc(N2C(=O)C[C@@H]3CN(C[C@H]4CCN(C)[C@@H](C)C4)c4c(Cl)cccc4N(C)C(=O)[C@H]32)n1 (single isomer, unassigned) [Example 126a]
2.98	Cc1cc(C(F)(F)F)cc(N2C(=O)C[C@@H]3CN(C[C@@H]4CCCCN4)c4c(Cl)cccc4N(C)C(=O)[C@H]32)n1 (racemic) [Example 105b, (3aR,11aS)-6-Chloro-10-methyl-1-(6-methyl-4-(trifluoromethyl)pyridin-2-yl)-5-(((S/R)-piperidin-2-yl)methyl)-1,3a,4,5,10,11a-hexahydro-2H-benzo[b]pyrrolo[2,3-f][1,4]diazocine-2,11(3H)-dione]
3.29	Cc1cc(C(F)(F)F)cc(N2C(=O)C[C@@H]3CN(Cc4ccncc4)c4c(Cl)cccc4N(C)C(=O)[C@H]32)n1 [Example 94, (3aR,11aS)-6-Chloro-10-methyl-1-(6-methyl-4-(trifluoromethyl)pyridin-2-yl)-5-(pyridin-4-ylmethyl)-1,3a,4,5,10,11a-hexahydro-2H-benzo[b]pyrrolo[2,3-f][1,4]diazocine-2,11(3H)-dione]
0.63	Cc1cc(C(F)(F)F)cc(N2C(=O)C[C@@H]3CN(Cc4cn5c(n4)C(C)N(C)CC5)c4c(C)cccc4N(C)C(=O)[C@H]32)n1 (single isomer, unassigned) [Example 116a]
461	COc1cc(N2C[C@H]3CC(=O)N(c4cc(C(F)(F)F)cc(C)n4)[C@@H]3C(=O)N(C)c3cccc(F)c32)ccn1 [Example 142, (3aR,11aS)-6-Fluoro-5-(2-methoxypyridin-4-yl)-10-methyl-1-(6-methyl-4-(trifluoromethyl)pyridin-2-yl)-1,3a,4,5,10,11a-hexahydro-2H-benzo[b]pyrrolo[2,3-f][1,4]diazocine-2,11(3H)-dione]
3.73	Cc1cc(C(F)(F)F)cc(N2C(=O)C[C@@H]3CN(Cc4nnc5n4CCNC5)c4c(Cl)cccc4N(C)C(=O)[C@H]32)n1 [Example 101, (3aR,11aS)-6-Chloro-10-methyl-1-(6-methyl-4-(trifluoromethyl)pyridin-2-yl)-5-((5,6,7,8-tetrahydro-[1,2,4]triazolo[4,3-a]pyrazin-3-yl)methyl)-1,3a,4,5,10,11a-hexahydro-2H-benzo[b]pyrrolo[2,3-f][1,4]diazocine-2,11(3H)-dione hydrochloride]

Second part, the compound before the results:

Compound	Ki [nM]
Cc1cc(C(F)(F)F)cc(N2C(=O)C[C@@H]3CN(CC4CCN(C)CC4)c4c(C)cccc4N(C)C(=O)[C@H]32)n1 [Example 79, (3aR,11aS)-6,10-Dimethyl-1-(6-methyl-4-(trifluoromethyl)pyridin-2-yl)-5-((1-methylpiperidin-4-yl)methyl)-1,3a,4,5,10,11a-hexahydro-2H-benzo[b]pyrrolo[2,3-f][1,4]diazocine-2,11(3H)-dione]	1.36
Cc1cc(C(F)(F)F)cc(N2C(=O)C[C@@H]3CN(Cc4nc5n(c4F)CCN(C)C5)c4c(Cl)cccc4N(C)C(=O)[C@H]32)n1 [Example 81, (3aR,11aS)-6-Chloro-5-((3-fluoro-7-methyl-5,6,7,8-tetrahydroimidazo[1,2-a]pyrazin-2-yl)methyl)-10-methyl-1-(6-methyl-4-(trifluoromethyl)pyridin-2-yl)-1,3a,4,5,10,11a-hexahydro-2H-benzo[b]pyrrolo[2,3-f][1,4]diazocine-2,11(3H)-dione hydrochloride]	1
Cc1cc(C(F)(F)F)cc(N2C(=O)C[C@@H]3CN(CCN4CC[C@H](C(=O)N(C)C)C4)c4c(Cl)cccc4N(C)C(=O)[C@H]32)n1 [Example 41, (S)-1-(2-((3aR,11aS)-6-Chloro-10-methyl-1-(6-methyl-4-(trifluoromethyl)pyridin-2-yl)-2,11-dioxo-1,2,3,3a,4,10,11,11a-octahydro-5H-benzo[b]pyrrolo[2,3-f][1,4]diazocin-5-yl)ethyl)-N,N-dimethylpyrrolidine-3-carboxamide]	2.9
Cc1cc(C(F)(F)F)cc(N2C(=O)C[C@@H]3CN(CC4CCNCC4)c4c(Cl)cccc4N(C)C(=O)[C@H]32)n1 [Example 78, (3aR,11aS)-6-Chloro-10-methyl-1-(6-methyl-4-(trifluoromethyl)pyridin-2-yl)-5-(piperidin-4-ylmethyl)-1,3a,4,5,10,11a-hexahydro-2H-benzo[b]pyrrolo[2,3-f][1,4]diazocine-2,11(3H)-dione]	1.1
Cc1cc(C(F)(F)F)cc(N2C(=O)C[C@@H]3CN(CCN4CCN5C(=O)COC[C@H]5C4)c4c(Cl)cccc4N(C)C(=O)[C@H]32)n1 [Example 43, (3aR,11aS)-6-Chloro-10-methyl-1-(6-methyl-4-(trifluoromethyl)pyridin-2-yl)-5-(2-((R)-4-oxohexahydropyrazino[2,1-c][1,4]oxazin-8(1H)-yl)ethyl)-1,3a,4,5,10,11a-hexahydro-2H-benzo[b]pyrrolo[2,3-f][1,4]diazocine-2,11(3H)-dione]	3.05
Cc1cc(C(F)(F)F)cc(N2C(=O)C[C@@H]3CN(CC4CCNCC4)c4c(F)cccc4N(C)C(=O)[C@H]32)n1 [Example 77, (3aR,11aS)-6-Fluoro-10-methyl-1-(6-methyl-4-(trifluoromethyl)pyridin-2-yl)-5-(piperidin-4-ylmethyl)-1,3a,4,5,10,11a-hexahydro-2H-benzo[b]pyrrolo[2,3-f][1,4]diazocine-2,11(3H)-dione Hydrochloride]	11.3
Cc1cc(C(F)(F)F)cc(N2C(=O)C[C@@H]3CN(CCN4CCN(C)C[C@H]4CO)c4c(C)cccc4N(C)C(=O)[C@H]32)n1 [Example 64, (3aR,11aS)-5-(2-((S)-2-(Hydroxymethyl)-4-methylpiperazin-1-yl)ethyl)-6,10-dimethyl-1-(6-methyl-4-(trifluoromethyl)pyridin-2-yl)-1,3a,4,5,10,11a-hexahydro-2H-benzo[b]pyrrolo[2,3-f][1,4]diazocine-2,11(3H)-dione dihydrochloride]	0.816
Cc1cc(C(F)(F)F)cc(N2C(=O)C[C@@H]3CN(CCN4CCN5C(=O)COC[C@H]5C4)c4c(C)cccc4N(C)C(=O)[C@H]32)n1 [Example 75, (3aR,11aS)-6,10-Dimethyl-1-(6-methyl-4-(trifluoromethyl)pyridin-2-yl)-5-(2-((R)-4-oxohexahydropyrazino[2,1-c][1,4]oxazin-8(1H)-yl)ethyl)-1,3a,4,5,10,11a-hexahydro-2H-benzo[b]pyrrolo[2,3-f][1,4]diazocine-2,11(3H)-dione]	1.81
Cc1cc(C(F)(F)F)cc(N2C(=O)C[C@@H]3CN(CCN4CCN(C(=O)[C@H](C)O)CC4)c4c(C)cccc4N(C)C(=O)[C@H]32)n1 [Example 52, (3aR,11aS)-5-(2-(4-((S)-2-Hydroxypropanoyl)piperazin-1-yl)ethyl)-6,10-dimethyl-1-(6-methyl-4-(trifluoromethyl)pyridin-2-yl)-1,3a,4,5,10,11a-hexahydro-2H-benzo[b]pyrrolo[2,3-f][1,4]diazocine-2,11(3H)-dione hydrochloride]	0.957
Cc1cc(C(F)(F)F)cc(N2C(=O)C[C@@H]3CN(CCN4CCN(C)CC4)c4ccccc4N(C)C(=O)[C@H]32)n1 [Example 13, (3aR,11aS)-10-Methyl-1-(6-methyl-4-(trifluoromethyl)pyridin-2-yl)-5-(2-(4-methylpiperazin-1-yl)ethyl)-1,3a,4,5,10,11a-hexahydro-2H-benzo[b]pyrrolo[2,3-f][1,4]diazocine-2,11(3H)-dione dihydrochloride]	51.1
CC(=O)N1CCN(CCN2C[C@H]3CC(=O)N(c4cc(C(F)(F)F)cc(C)n4)[C@@H]3C(=O)N(C)c3cccc(C)c32)CC1 [Example 55, (3aR,11aS)-5-(2-(4-Acetylpiperazin-1-yl)ethyl)-6,10-dimethyl-1-(6-methyl-4-(trifluoromethyl)pyridin-2-yl)-1,3a,4,5,10,11a-hexahydro-2H-benzo[b]pyrrolo[2,3-f][1,4]diazocine-2,11(3H)-dione hydrochloride]	0.891
Cc1cc(C(F)(F)F)cc(N2C(=O)C[C@@H]3CN(CC4CCN(C5COC5)CC4)c4c(Cl)cccc4N(C)C(=O)[C@H]32)n1 [Example 85, (3aR,11aS)-6-Chloro-10-methyl-1-(6-methyl-4-(trifluoromethyl)pyridin-2-yl)-5-((1-(oxetan-3-yl)piperidin-4-yl)methyl)-1,3a,4,5,10,11a-hexahydro-2H-benzo[b]pyrrolo[2,3-f][1,4]diazocine-2,11(3H)-dione]	0.622
Cc1cc(C(F)(F)F)cc(N2C(=O)C[C@@H]3CN(CCN4CCN[C@H](C)C4)c4c(Cl)cccc4N(C)C(=O)[C@H]32)n1 [Example 9, (3aR,11aS)-6-Chloro-10-methyl-1-(6-methyl-4-(trifluoromethyl)pyridin-2-yl)-5-(2-((R)-3-methylpiperazin-1-yl)ethyl)-1,3a,4,5,10,11a-hexahydro-2H-benzo[b]pyrrolo[2,3-f][1,4]diazocine-2,11(3H)-dione]	1.4
